Results from patent US9884842B2, “Combretastatin analogs” (The Board of Trustees of the University of Arkansas, priority 2013, dated 2018).

Tests used:
OVCAR-3 = assay: cells; conditions: Homo sapiens
K-562 = assay: NCI growth inhibition and cytotoxicity screen, Leukemia panel; conditions: Homo sapiens
RPMI-8226 = assay: as above; conditions: Homo sapiens
LOX-IMVI = assay: NCI growth inhibition and cytotoxicity screen, Melanoma panel; conditions: Homo sapiens
M14 = assay: as above; conditions: Homo sapiens
SK-MEL-2 = assay: as above; conditions: Homo sapiens
SK-MEL-28 = assay: as above; conditions: Homo sapiens
UACC-257 = assay: as above; conditions: Homo sapiens
UACC-62 = assay: as above; conditions: Homo sapiens
SF-268 = assay: NCI growth inhibition and cytotoxicity screen, CNS Cancer panel; conditions: Homo sapiens
SF-539 = assay: as above; conditions: Homo sapiens
SNB-19 = assay: as above; conditions: Homo sapiens
SNB-75 = assay: as above; conditions: Homo sapiens
U251 = assay: as above; conditions: Homo sapiens
A549/ATCC = assay: NCI growth inhibition and cytotoxicity screen, Lung Cancer panel; conditions: Homo sapiens
HOP-92 = assay: as above; conditions: Homo sapiens
NCI-H226 = assay: as above; conditions: Homo sapiens
NCI-H460 = assay: as above; conditions: Homo sapiens
HT29 = assay: NCI growth inhibition and cytotoxicity screen, Colon Cancer panel; conditions: Homo sapiens
KM12 = assay: as above; conditions: Homo sapiens
786-0 = assay: NCI growth inhibition and cytotoxicity screen, Renal Cancer panel; conditions: Homo sapiens
A498 = assay: as above; conditions: Homo sapiens
CAKI-1 = assay: as above; conditions: Homo sapiens
TK-10 = assay: as above; conditions: Homo sapiens
MCF7 = assay: NCI growth inhibition and cytotoxicity screen, Breast Cancer panel; conditions: Homo sapiens
BT-549 = assay: as above; conditions: Homo sapiens
T-47D = assay: as above; conditions: Homo sapiens, T47D
IGROV1 = assay: NCI growth inhibition and cytotoxicity screen, Ovarian Cancer panel; conditions: Homo sapiens
OVCAR-5 = assay: as above; conditions: Homo sapiens
NCI/ADR-RES = assay: as above; conditions: Homo sapiens
SK-OV-3 = assay: as above; conditions: Homo sapiens

`COc1cc(/C(C#N)=C/c2ccc3ccccc3n2)cc(OC)c1OC` [PNR-4-90, (Z)-3-(quinolin-2-yl)-2-(3,4,5-trimethoxyphenyl)acrylonitrile] showed a GI50 (OVCAR-3; OVCAR-3) of 163 nM, a CC50 (OVCAR-3; OVCAR-3, read-out: LC50) of 54900 nM and a GI50 (K-562; K562) of 80 nM. For the same molecule, the CC50 (K-562; K562, read-out: LC50) was over 100000 nM, the GI50 (RPMI-8226; RPMI-8226) was 297 nM and the CC50 (RPMI-8226; RPMI-8226, read-out: LC50) was over 100000 nM. For the same molecule, the GI50 (LOX-IMVI) was 766 nM, the CC50 (LOX-IMVI; read-out: LC50) was over 100000 nM and the GI50 (M14; M14) was 173 nM. For the same molecule, the CC50 (M14; M14, read-out: LC50) was over 100000 nM, the GI50 (SK-MEL-2; SK-MEL-2) was 483 nM and the CC50 (SK-MEL-2; SK-MEL-2, read-out: LC50) was over 100000 nM. For the same molecule, the GI50 (SK-MEL-28; SK-MEL-28) was 518 nM, the CC50 (SK-MEL-28; SK-MEL-28, read-out: LC50) was over 100000 nM and the GI50 (UACC-257; UACC-257) was 761 nM. For the same molecule, the CC50 (UACC-257; UACC-257, read-out: LC50) was over 100000 nM, the GI50 (UACC-62; UACC-62) was 92 nM and the CC50 (UACC-62; UACC-62, read-out: LC50) was over 100000 nM. It also gave a GI50 (SF-268; SF-268) of 835 nM, a CC50 (SF-268; SF-268, read-out: LC50) of over 100000 nM and a GI50 (SF-539; SF-539) of 197 nM. For the same molecule, the CC50 (SF-539; SF-539, read-out: LC50) was 14900 nM, the GI50 (SNB-19; SNB-19) was 578 nM and the CC50 (SNB-19; SNB-19, read-out: LC50) was over 100000 nM. The GI50 (SNB-75; SNB-75) was 182 nM, the CC50 (SNB-75; SNB-75, read-out: LC50) was 98800 nM and the GI50 (U251; U-251) was 355 nM. For the same molecule, the CC50 (U251; U-251, read-out: LC50) was 90500 nM, the GI50 (A549/ATCC; A549) was 375 nM and the CC50 (A549/ATCC; A549, read-out: LC50) was over 100000 nM. It also gave a GI50 (HOP-92; HOP-92) of 736 nM, a CC50 (HOP-92; HOP-92, read-out: LC50) of over 100000 nM and a GI50 (NCI-H226; NCI-H226) of 4780 nM. It also gave a CC50 (NCI-H226; NCI-H226, read-out: LC50) of over 100000 nM, a GI50 (NCI-H460; NCI-H460) of 361 nM and a CC50 (NCI-H460; NCI-H460, read-out: LC50) of over 100000 nM. The GI50 (HT29; HT-29) was 240 nM, the CC50 (HT29; HT-29, read-out: LC50) was over 100000 nM and the GI50 (KM12; KM12) was 350 nM. It also gave a CC50 (KM12; KM12, read-out: LC50) of over 100000 nM, a GI50 (786-0; 786-0) of 445 nM and a CC50 (786-0; 786-0, read-out: LC50) of over 100000 nM. The GI50 (A498; A498) was 295 nM, the CC50 (A498; A498, read-out: LC50) was over 100000 nM and the GI50 (CAKI-1; CAKI-1) was 68 nM. The CC50 (CAKI-1; CAKI-1, read-out: LC50) was over 100000 nM, the GI50 (TK-10; TK-10) was 4690 nM and the CC50 (TK-10; TK-10, read-out: LC50) was over 100000 nM. The GI50 (MCF7; MCF7) was 275 nM, the CC50 (MCF7; MCF7, read-out: LC50) was over 100000 nM and the GI50 (BT-549; BT-549) was 315 nM. The CC50 (BT-549; BT-549, read-out: LC50) was over 100000 nM, the GI50 (T-47D) was 4760 nM and the CC50 (T-47D; read-out: LC50) was over 100000 nM. It also gave a GI50 (IGROV1; IGROV-1) of 846 nM, a CC50 (IGROV1; IGROV-1, read-out: LC50) of over 100000 nM and a GI50 (OVCAR-5; OVCAR-5) of 580 nM. It also gave a CC50 (OVCAR-5; OVCAR-5, read-out: LC50) of over 100000 nM, a GI50 (NCI/ADR-RES) of 112 nM and a CC50 (NCI/ADR-RES; read-out: LC50) of over 100000 nM. For the same molecule, the GI50 (SK-OV-3; SK-OV-3) was 524 nM and the CC50 (SK-OV-3; SK-OV-3, read-out: LC50) was over 100000 nM.
